# Results reported in US8624032B2, “Compound libraries made through phosphine-catalyzed annulation/Tebbe/Diels-Alder reactions” (The Regents of the University of California, priority 2011, dated 2014).
# How the values were obtained:
# [1] = tested on: MDA-MB-231 human breast cancer cells; assay: wound closure assay (cell migration); format: cell-based; conditions: for effect on wound closure or cytotoxicity in the screen: 24 hours after wounding
# Description: In the wound closure assay, MDA-MB-231 cells (American Type Culture Collection number: HTB-26) were cultured in 75 cm^2 tissue culture flasks with growth medium (DMEM containing 10% fetal bovine serum) at 37° C. under 5% CO2 in a humidified tissue culture incubator. The cells were grown to 80% confluence and then treated with trypsin, collected, and replated in 96-well tissue culture plates for initial screening. Once confluent, the cell cultures were treated with compounds at various concentrations or with DMSO carrier solvent alone with fresh growth medium. In all cases, the final DMSO concentration was 0.05%. After 30 minutes, the cell cultures were wounded with a sterile micropipette tip, and the wound closure experiments were performed essentially as described previously.
# Cell monolayers in 24-well tissue culture plates were treated with different concentrations of each compound 30 minutes before wounding and then wounded, as described above.
# Digital images of the wounds were captured immediately after wounding and at 3 h, 6 h, 9 h, 12 h, and 24 hours post-wounding. The open wound areas, as a function of time after wounding, were determined with NIH Image J software to establish the mean percent wound closure over time for each treatment and parallel controls, as previously described. The mean percent wound closure values at 9 hours post-wounding for all concentrations up to the maximal subtoxic concentration were subjected to nonlinear regression to calculate IC50 values and 95% confidence intervals for inhibition of wound closure.
# The Minimum Inhibitory Concentration (MIC) column of Table 1 represents the lowest concentration tested at which there was statistically significant inhibitory activity in the wound closure assay as determined by unpaired, two-tailed Student's t-tests (P<0.05).
# Half-maximal inhibitory concentration (IC50) values shown in Table 1 were calculated for inhibition of wound closure at 9 hours post-wounding from concentration—response profiles for a range of subtoxic concentrations (n=7−9 wounds from three independent experiments).
# [2] = tested on: MDA-MB-231 human breast cancer cells; assay: trypan blue dye exclusion assay at the end of wound closure experiments; format: cell-based; conditions: lowest concentration tested with statistically significant cell death by the end of wound closure experiments
# Description: Compounds were first screened at 50 μm and evaluated for their antimigratory activity and cytotoxicity. This was accomplished by scoring wounds as opened or closed as a function of time following wounding to determine the time to closure. Cell viability was determined by the trypan blue dye exclusion assay conducted at the end of each experiment, with the ratio of dye-non-excluding (dead) to dye-excluding (live) cells compared with the control, described in greater detail in Example 7.
# Minimum lethal concentration (MLC) represents the lowest concentration tested at which there was statistically significant cell death, measured using the trypan blue dye exclusion assay, by the end of wound closure experiments. The minimum lethal concentration (MLC) for compound 94 under the conditions of the cell invasion assay was 50 μm. In the cell invasion assay, cells were at a lower density than in the wound closure assay, and compounds were added at the same time as the cells, rather than after attachment and growth.
# [3] = tested on: MDA-MB-231 cells; assay: cell invasion assay through Matrigel in transwell chambers; format: cell-based, human; conditions: subtoxic concentrations, 24 hours
# Description: Cell migration is a necessary condition for the metastasis of solid tumors. A major determinant of the metastatic potential of a cancer cell is its ability to invade through extracellular matrix barriers. Therefore, compounds 90, 92 and 94 were tested for their activities using a cell invasion assay.
# Compounds 90, 92, and 94 were analyzed for their ability to inhibit the invasion of cells through Matrigel in a cell invasion assay. The assay was performed in transwell chambers according to the manufacturer's instructions (BD Biosciences). The polycarbonate membranes (8 μm pore size) of the upper chambers were coated with Matrigel (25 μg). Growth medium containing the tested compound or DMSO alone was added to the lower chambers ([…] per well in 24-well BD Falcon TC companion plates). […] After removing noninvaded cells from the upper surface of the membrane with a cotton swab, the invaded cells on the lower surface were fixed with MeOH, stained with crystal violet solution, rinsed with water, air-dried, and then counted by using an inverted microscope. In parallel experiments, cell viability, determined using the trypan blue dye exclusion assay at various concentrations of the tested compounds, was evaluated under the conditions of the cell invasion assay.
# [4] = tested on: MDA-MB-231 cells; assay: tetrazolium salt-based cell proliferation and viability assay (CCK-8); set-up: species or system human; conditions: 48 hours
# Description: Compounds 90, 92 and 94 were also evaluated in a tetrazolium salt-based cell proliferation and viability assay.
# The cell proliferation and cell viability assay was conducted according to the manufacturer's instructions (CCK-8; Dojindo Molecular Technologies). MDA-MB-231 cells were plated in 96-well tissue culture plates ([…] per well of a 4×10^4 cells per mL suspension in growth medium) and incubated for 24 hours at 37° C. under 5% CO2. The cells were then treated with the tested compounds at various concentrations or with DMSO alone. In all cases, the final DMSO concentration was 0.05%. At the same time, other cells from parallel plates were analyzed using the CCK-8 assay to establish the cell density at the start of the experiment. After 48 hours of incubation, the cell numbers for the experimental samples were determined and compared with the initial cell numbers.
# [5] = tested on: cell migration; conditions: natural product comparator; read-out: IC50 (inhibition of cell migration); cited from earlier work
smiles,measurement,setting,value
CCOc1cc2c(c3c1C(c1ccccc1)N(S(=O)(=O)c1ccc(C)cc1)C3)C(=O)C=CC2=O (centres unmarked) [Compound 92],effect on wound closure or cytotoxicity in the screen,[1]; 2 μm,inactive
same,effect on wound closure or cytotoxicity in the screen,[1]; 10 μm,inhibit wound closure or were cytotoxic
same,effect on wound closure or cytotoxicity in the screen,[1]; 50 μm,inhibit wound closure or were cytotoxic
same,IC50,"[1]; Homo sapiens, MDA-MB-231, 9 hours post-wounding, subtoxic concentrations, n=7-9 wounds from three independent experiments, read-out: IC50 (inhibition of wound closure)",14.8 µM
same,"MIC (minimum inhibitory concentration, wound closure)",[1]; lowest concentration tested with statistically significant inhibitory activity (P<0.05),5 µM
same,antimigratory activity in the wound closure assay,[1]; subtoxic concentrations,exhibited subtoxic antimigratory activity
same,MLC (minimum lethal concentration),[2],50 µM
same,activity against cell invasion,[3],inhibit cell migration and invasion at subtoxic concentrations
same,inhibition of cell growth,[4]; concentrations that inhibit migration and invasion,did not inhibit cell growth
same,cytotoxicity,[4]; higher concentrations,become cytotoxic at higher concentrations over a very narrow range
CO[C@H]1/C=C/CC/C=C/C(=O)O[C@H]([C@H](C)C(=O)CCCC2CC(=O)NC(=O)C2)/C(C)=C\[C@@H](C)[C@@H]1O [migrastatin],IC50,[5],29 µM
